# Laboratory results from patent publication US4481141A, “Nondiffusible yellow metallized azo dye-releasing compounds” (Eastman Kodak Company, priority 1983, dated 1984).
# “Also recorded” adds a separate entry of the source.
# What was measured:
# Type in all cases: physicochemical
# [1] = Dye solution spectra of Ni-dye complexes (Table I); details: 3:1 dioxane:water, pH 7, excess nickel ion
# Description: (§1) The receiver was removed from the dye solution, washed in distilled water, placed in a pH 7.0 buffer solution and dried. Transmission spectra obtained on each sample of the mordanted dyes were normalized by computer to a density of 1.0. The characteristic wavelength of the dye, λ1/2 in nm, is the mean of the wavelength limits of the absorption envelope at half the maximum density. The HBW ("half band width") in nm is the range or distance between those limits. The dye solution spectrum in 3:1 dioxane:water at pH 7 in the presence of excess nickel ion is also given.
# [2] = Transmission spectra of mordanted dyes on receiving element (Table I); details: unmetallized dye; nickel sulfate layer/poly(4-vinylpyridine) mordant receiver; pH 7.0
# Method: (§2) A receiving element was prepared comprising a poly(ethylene terephthalate) film support having thereon a nickel sulfate hexahydrate (0.58 g/m^2)/gelatin (1.08 g/m^2) metal complexing layer, and a poly(4-vinylpyridine)/gelatin mordant layer (each at 2.15 g/m^2), which forms metal complexes with the unmetallized dyes. […]
# as §1
# [3] = Light stability of mordanted dyes (HID fade, Table I); details: unmetallized dye; nickel layer/poly(4-vinylpyridine) receiver; 10 days HID, 50,000 lux, 38° C., pH 7
# Method: as §2
# The above receiving elements at pH 7 were then subjected to 10 days irradiation by a high intensity daylight (HID), 6000 W Xenon arc lamp, the sample receiving 50,000 lux through a Wratten 2B (ultraviolet) filter at approximately 38° C. and low humidity. The percent fade represents the loss in density at λmax after irradiation.
# [4] = Dye diffusion, solution test; details: 0.0025M dye, pH 13.4
# Description: (§3) The released dyes in Table I were also subjected to the conditions of two different dye diffusion tests. One, the "solution test" involved dissolving the dye in a viscous composition and transferring it through a receiving element which contains an opaque and reflecting layer in addition to the mordant layer. The other, a "gel pad test" involved imbibing the dye from solution into a thick gelatin layer, and then transferring it by direct lamination to the same receiving element which had been preswollen by soaking 5 minutes in a solution of 0.1 potassium hydroxide. The receiver for these tests had the following composition (coverages are parenthetically given in g/m^2):
# (§4) A transparent poly(ethylene terephthalate) film support coated with
# (§5) (1) a mordant layer of poly(styrene-co-N-vinylbenzyl-N-benzyl-N,N-dimethylammonium chloride-co-divinylbenzene) (2.28) and gelatin (2.28);
# (§6) (2) an opaque and reflecting layer of carbon black (1.88) in gelatin (1.23) and titanium dioxide (16.1) in gelatin (2.63); and
# (§7) (3) an overcoat layer of gelatin (4.3).
# Approximately 0.075 mmol of the released dye was dissolved in 10 ml of 0.125N potassium hydroxide. After the dye was completely dissolved, 20 ml of a viscous composition was added; and the resulting solution, stirred for at least 20 minutes, was 0.0025M in dye at a pH of 13.4. The viscous composition was prepared from 46.2 g potassium hydroxide and 54 g carboxymethylcellulose dissolved in 1200 ml water. […] Measurement of the rate of dye diffusion was commenced at the point at which half of the laminate had passed through the rollers. The appearance of dye on the mordant was measured at λmax as diffuse reflection density vs. time. The reflection density was converted to transmission density by computer with the aid of a mathematical relation derived from a previous calibration. A plot of transmission density, which is proportional to concentration vs. time, was derived; and the value of t-1/2 of dye transfer, the time in seconds required to obtain one-half of the maximum transmission density, calculated.
# [5] = Comparison with prior art: absorption in dioxane/water with and without nickel ions
# Method: In U.S. Pat. No. 4,148,643, Compound J in column 32 is the nickel complex of the following dye compound: [drawing 20] The nickel-dye complex is listed as having a λmax of 462 nm and a half-band width of 76 nm when adsorbed to a cationic polymeric mordant on a film strip. A 1:1 dioxane/water mixture at a pH of 7.0 of this nickel-dye complex was prepared. It absorbed at 444 nm in the presence of excess nickel ions and 402 nm in the absence of nickel ions.
# In Table I, Compound C has the following structure: [drawing 21] The compound has a quinoline nitrogen chelating group instead of a hydroxyl chelating group as in Compound J of the '643 patent. A 1:1 dioxane/water mixture at a pH of 7.0 of the above Compound C was prepared. It absorbed at 452 nm in the presence of excess nickel ions and at 387 nm in the absence of nickel ions.
# [6] = Dye diffusion, gel pad test
# Description: as §3, §4, §5, §6, §7
# A donor element, containing a thick pad of deionized acid-processed gelatin (26 g/m^2) hardened with 2 percent bis(vinylsulfonylmethyl)ether, was imbibed with a solution of 0.1M in potassium hydroxide and 1.3×10^-3 M in dye. […]
# [7] = Stability of dye:nickel complex under gel pad transfer conditions; details: after gel pad diffusion test
# Method: A donor element, containing a thick pad of deionized acid-processed gelatin (26 g/m^2) hardened with 2 percent bis(vinylsulfonylmethyl)ether, was imbibed with a solution of 0.1M in potassium hydroxide and 1.3×10^-3 M in dye. The pad was soaked to full penetration, surface wiped, and then laminated in direct contact to the above receiving element which had been presoaked for 5 minutes at 0.1M KOH. The t-1/2 of dye transfer was obtained as in the solution test. The diffusion times by the "gel pad test" are substantially longer than by the "solution test".
# When the unmetallized dye ligand of Compound J of the '643 patent and the 1:1 complex thereof were subjected to the gel pad diffusion test as described in Example 1, the values obtained were 66 sec. and 146 sec., respectively.
SMILES,"Spectra of Ni-Dye Complexes, Dye Solution, HBW (half band width) [1] [nm]","Spectra of Ni-Dye Complexes, Dye Solution, λ1/2 [1] [nm]","Spectra of Ni-Dye Complexes, Mordant, HBW (half band width) [2] [nm]","Spectra of Ni-Dye Complexes, Mordant, λ1/2 [2] [nm]",% Fade (loss in density at λmax after irradiation) [3] [%],"Dye Diffusion t1/2, Soln. [4] [s]","nature/stability of dye:nickel complex from spectrum ([5]; 0.5 mol Ni^++, listed as Dye C)","absorption wavelength in the presence of excess nickel ions ([5]; 1:1 dioxane/water, pH 7.0, excess nickel ions) [nm]","absorption wavelength in the absence of nickel ions ([5]; 1:1 dioxane/water, pH 7.0, no nickel ions) [nm]",spectrum at reduced nickel ion concentration ([5]; nickel ion at one-half the molar concentration of the dye),"Dye Diffusion t1/2, Gel Pad ([6]; gel pad test, 0.1M KOH, 1.3×10^-3 M dye) [s]",gel pad diffusion test value ([6]; gel pad diffusion test as in Example 1 (comparison with prior art)) [s],spectrum of the dye on the receiver after transfer [7]
CC(O)=C(C#N)N=Nc1cccc2cccnc12 [A],68,431,–,–,–,–,–,–,–,–,–,–,–
CC(O)=C(C#N)N=Nc1ccc(S(N)(=O)=O)c2cccnc12 [B],67,445,70,456,1.5,27,–,–,–,–,–,–,–
CC(O)=C(C#N)N=Nc1ccc(S(=O)(=O)Nc2cccc(S(N)(=O)=O)c2)c2cccnc12 [Compound C],70,448,74,457,1.0,37,stable 2:1 complex of dye to metal; also recorded: much more stable 2:1 dye:nickel complex than compound J of the '643 patent,452,387,no change in the spectrum,–,–,–
CC(O)=C(C#N)N=Nc1ccc(S(=O)(=O)Nc2cccc(O)c2)c2cccnc12 [D],70,451,73,459,8.0,39,–,–,–,–,–,–,–
CC(C)(C)C(O)=C(C#N)N=Nc1ccc(S(N)(=O)=O)c2cccnc12 [E],72,445,69,456,2.0,29,–,–,–,–,–,–,–
N#CC(N=Nc1cccc2cccnc12)=C(O)c1ccccc1 [F],70,446,75,458,2.0,–,–,–,–,–,–,–,–
N#CC(N=Nc1ccc(S(N)(=O)=O)c2cccnc12)=C(O)c1ccccc1 [G],70,460,75,470,1.0,27,–,–,–,–,–,–,–
CC(C)(C)C(O)=C(C#N)N=Nc1ccc(S(=O)(=O)Nc2cccc(S(N)(=O)=O)c2)c2cccnc12 [H],70,450,79,455,3.6,40,–,–,–,–,–,–,–
CC(O)=C(C#N)N=Nc1ccc(S(=O)(=O)Nc2cccc(C(=O)O)c2)c2cccnc12 [I],68,451,77,455,7.2,34,–,–,–,–,127,–,–
O=c1c(N=Nc2cccc3cccnc23)c(O)n(-c2ccccc2)n1-c1ccccc1 [L],72,435,77,439,1.0,–,–,–,–,–,–,–,–
NS(=O)(=O)c1ccc(N=Nc2c(O)n(-c3ccccc3)n(-c3ccccc3)c2=O)c2ncccc12 [M],72,450,77,459,1.0,–,–,–,–,–,–,–,–
Cc1nn(-c2ccccc2)c(O)c1N=Nc1cccc2cccnc12 [N],102,444,116,447,3.0,–,–,–,–,–,–,–,–
O=c1oc2ccccc2c(O)c1N=Nc1cccc2cccnc12 [O],98,429,85,452,0.0,–,–,–,–,–,–,–,–
CC(O)=C(C#N)N=Nc1cc(S(N)(=O)=O)ccc1O [reference compound],–,–,–,–,–,–,–,–,–,–,–,66,showed the presence of the unmetallized dye only
